Source: patent US5262433A, “Tetrazoleacetic acid derivatives and method of aldose reductase inhibition therewith” (Wakamoto Pharmaceutical Co., Ltd., priority 1991, dated 1993)

How the values were obtained:
[1] = molecular target: T1, aldose reductase (Rattus norvegicus, UniProt P07943); experiment: Aldose Reductase Inhibition Test; assay type: biochemical, rat (male SD rats, crystalline lenses); conditions: rat lens enzyme; DL-glyceraldehyde 10 mM, pH 6.2, 30° C., 5 minutes
T1 construct: crystalline lenses were immediately removed and stored at -80° C; from tissue; host or cells: crystalline lenses of six-week-old male SD rats
Protocol: Six-week-old male SD rats were anesthetized with ether and killed. The their crystalline lenses were immediately removed and stored at -80° C. The lenses were homogenized in 3 volumes of 135 mM sodium potassium phosphate buffer (pH 7.0) and centrifuged at 30,000 rpm for 30 minutes. The resulting supernatant was dialyzed overnight against 0.05M sodium chloride solution to obtain an aldose reductase solution. All operations were conducted at 4° C. and the enzyme solution was stored at -80° C.
The activity of aldose reductase was determined according to a partially modified method of J. H. Kinoshita et al. (J. Biol. Chem., 1965, 240, p. 877). More specifically, 0.1 ml of DL-glyceraldehyde (final concentration: 10 mM) was added to 0.9 ml of 100 mM sodium potassium phosphate buffer (pH 6.2) which contained lithium sulfate (final concentrationL 400 mM), reduced nicotinamide adenine dinucleotide phosphate (final concentration: 0.15 mM), the enzyme solution, and the compound to be evaluated (final concentration: 10^-5 M, 10^-6 M, 10^-7 M or 10^-8 M), and then the reaction was conducted at 30° C. for 5 minutes. During the reaction, the change in the absorbance at 340 nm with time was monitored.
The maximum reducing rate of the absorbance (U) during the reaction was determined. By subtracting, from this value, the maximum reducing rate (U0) at 340 nm of the reaction solution before the addition of the substrate (DL-glyceraldehyde), the reaction rate (V=U-U0) was calculated as a true reaction rate in the presence of the compound to be tested.
The same procedure was repeated except for the absence of the compound to be tested. A true reaction rate (V0) in case the enzyme was not inhibited was calculated (V0 =U^1 -U0^1). The aldose reductase inhibitory activity of the test compounds was determined according to the following formula:
Rate of Inhibition (%)=(V0 -V)/V0 ×100
The concentration of inhibitor giving 50% inhibition of enzyme activity (IC50) was estimated from the least-square regression line of the log dose-response curve.

[2] = tested on: sorbitol accumulation in lens; experiment: Inhibitory activity test against sorbitol accumulation in lens of streptozotocin diabetic rats; assay type: in vivo, rat (Sprague-Dawley); conditions: 100 mg/kg oral once a day for 5 days, STZ diabetic rats
Protocol: (§1) Groups of 6 to 8-week-old Sprague-Dawley male rats (4 animals per group) were fasted for 18 hours and streptozotocin was injected through the tail vein in a dose of 60 mg/kg, to obtain diabetic rats.
(§2) Immediately after the administration of streptozotocin, each compound to be tested was orally administered to these rats in the form of a suspension at a dose of 5 mg/kg, 10 mg/kg and 100 mg/kg (each was suspended in a 0.5% sodium carboxymethyl cellulose solution) once a day (at 9 a.m.) for 5 days.
(§3) During the test, the rats took diet and drank water freely. Four hours after the final administration of the drug in the 5th day's morning (at 9 a.m.), the rats were sacrificed and then the sciatic nerve and lens were removed to determine the amounts of sorbitol accumulated therein.
(§4) The results are expressed in the percentage obtained when the value obtained on the control to which no drug was administered is defined 100.

[3] = tested on: sorbitol accumulation in sciatic nerve; experiment: Inhibitory activity test against sorbitol accumulation in sciatic nerve of streptozotocin diabetic rats; assay type: in vivo, rat (Sprague-Dawley); conditions: for Rate of Inhibition of Sorbitol Accumulation, Sciatic nerve, 10 mg/kg: 10 mg/kg oral once a day for 5 days; for Rate of Inhibition of Sorbitol Accumulation, Sciatic nerve, 100 mg/kg: 100 mg/kg oral once a day for 5 days; for Rate of Inhibition of Sorbitol Accumulation in Sciatic Nerve (10 mg/kg): comparative compounds III (Table 4)
Protocol: as §1, §2, §3, §4

[4] = sciatic nerve, STZ diabetic rats

IC50 [1] [nM] | Compound | Rate of Inhibition of Sorbitol Accumulation, lens, 100 mg/kg [2] [%] | Rate of Inhibition of Sorbitol Accumulation, Sciatic nerve, 5 mg/kg ([3]; po, 5 mg/kg, 120 h) [%] | Rate of Inhibition of Sorbitol Accumulation, Sciatic nerve, 10 mg/kg [3, 4] [%] | Rate of Inhibition of Sorbitol Accumulation, Sciatic nerve, 100 mg/kg [3, 4] [%] | Rate of Inhibition of Sorbitol Accumulation, Sciatic nerve, 5 mg/kg ([3]; sciatic nerve, 5 mg/kg oral once a day for 5 days, STZ diabetic rats) [%] | Rate of Inhibition of Sorbitol Accumulation in Sciatic Nerve (10 mg/kg) ([3]; sciatic nerve) [%] | sorbitol accumulation rate [3] [%]
1300 | O=C(Cn1nnnc1-c1ccsc1)OCCCCCO [Example 18, [5-(3-thienyl)tetrazol-1-yl]acetic acid 5-hydroxypentyl ester] | 7 | -27 | 16 | 102 |  |  | 
 | CC(/C=C1\SC(=S)N(CC(=O)O)C1=O)=C\c1ccccc1 [ONO-2235, (E)-3-carboxymethyl-5-[(2E)-methyl-30 phenylpropenylidene]rhodan, reference compound] |  |  | 0 | 40 | 0 |  | 
 | [5-(2-thienyl)tetrazol-1-yl] acetic acid 2-hydroxyethyl ester [Example 3] |  |  |  |  |  | 35 | 
3100 | O=C(Cn1nnnc1-c1ccccc1)OCCO [Example 6, (5-phenyltetrazol-1-yl) acetic acid 2-hydroxyethyl ester] | 24 | 29 | 46 | 103 |  |  | 
 | O=C(Cn1nnnc1-c1ccsc1)OCCCO [Example 15, [5-(3-thienyl)tetrazol-1-yl]acetic acid 3-hydroxypropyl ester] | 36 | 24 | 37 | 110 |  |  | 
 | [5-(2-methylthio-3-thienyl)tetrazol-1-yl]acetic acid 2-hydroxyethyl ester [Example 2] |  |  |  |  |  | 63 | 
 | CCOC(=O)Cn1nnnc1-c1ccsc1 [compound 2, reference compound] |  |  |  |  |  |  | 63
360 | O=C(Cn1nnnc1-c1ccsc1)OCCO [Example 1, [5-(3-thienyl)tetrazol-1-yl] acetic acid 2-hydroxyethyl ester] | 50 | 48 | 73 | 102 |  |  | 73
360 | O=C(Cn1nnnc1-c1ccoc1)OCCO [Example 12, [5-(3-furyl)tetrazol-1-yl] acetic acid 2-hydroxyethyl ester] | 68 | 41 | 70 | 107 |  |  | 
 | [5-[(3-methylsulfonylamino)-2-thienyl]tetrazol-1-yl] acetic acid 2-hydroxyethyl ester [Example 4] |  |  |  |  |  | 40 | 
390 | O=C(Cn1nnnc1-c1ccsc1)OCCCCO [Example 16, [5-(3-thienyl)tetrazol-1-yl]acetic acid 4-hydroxybutyl ester] | -10 | -5 | 35 | 103 |  |  | 
 | O=C(O)Cn1nnnc1-c1ccsc1 [reference compound] |  |  |  |  |  | 53 | 
 | [5-[5-(3-phenylpropyl)-2-thienyl]tetrazol-1-yl]acetic acid 2-hydroxyethyl ester [Example 5] |  |  |  |  |  | 40 | 
210 | COCCOC(=O)Cn1nnnc1-c1ccsc1 [Example 19, [5-(3-thienyl)tetrazol-1-yl]acetic acid 2-methoxyethyl ester] | 13 | 22 | 38 | 103 |  |  | 
